In patent US20160067161A1, “COSMETIC OR PHARMACEUTICAL COMPOSITION FOR RESISTING SKIN AGEING THROUGH AN ANTI-INFLAMMATORY ACTION” (GIULIANI S.P.A., priority 2013, published 2016):

Tests used:
NCTC 2544 cells = test: ROS antioxidant test (DCFH-DA spectrofluorometry) on NCTC 2544 cells; assay type: cell-based, human; conditions: 500 μM, 1.5 hours (FIG. 3); for decrease in intracellular concentration of ROS produced compared with H2O2 control: test compound at 500 nM, 1 μM, 1 mM, α-tocopherol 250 μg/ml (580 μM)
Description: Samples of a compound of the invention, N^1-methylspermidine trihydrochloride salt, i.e. N-(3-aminopropyl)-N^1-methyl-1,4-butanediamine 3HCl, were subjected to the following antioxidant test to reactive oxygen species (ROS).
The production of ROS was monitored spectrofluorometrically using 2′,7′-dichlorofluorescein diacetate (DCFH-DA), as described by Tobi et al. (Tobi S E, Paul N, T McMillan J. J Photochem Photobiol, B 2000: 57: 102-112).
The NCTC 2544 cells (about 80% confluence) were detached with trypsin/EDTA and seeded at a density of 5×10^4 cells per well in 96-well plates. Subsequently, the cells were treated with samples of N^1-methylspermidine, at the following concentrations: 500 nM, 1 μm and 500 μm, 1 mM (final concentration in the culture medium).
α-tocopherol (250 μg/ml, 580 μm) was used as a comparison of the antioxidant activity.
The plates were incubated at 37° C. in 5% CO2 for 1.5 hours. Cells cultured on basal medium with 2.5% FBS were used as a control.
The results are shown in the graph of FIG. 3, wherein N^1-methylspermidine trichydrochloride salt is for brevity indicated as ‘methylspermidine’.

TNF-α = test: Anti-inflammatory test: TNF-α gene expression by qRT-PCR in LPS-treated NCTC2544 keratinocytes; assay type: cell-based, human; conditions: for TNF-α expression: NCTC2544 cells + LPS 5 μg/ml, 16 hours of treatment
Experimental: An immortalized line of human keratinocytes NCTC2544 is used (Perry, V. P., Sanford, K. K., Evans, V. J., Hyatt, G. W., Earle, W. R., 1957: Establishment of clones of epithelial cells from human skin. J Natl Cancer Inst. 18 (5): 709-717) cultured in sterile flasks ([…]), incubated at 37° C. in a humid atmosphere at 5% CO2 in MEM (Minimum Essential Medium) added with bovine fetal serum (FBS), 2 mm L-glutamine, 1% non-essential amino acids, in the presence of 1% penicillin and streptomycin.
A 1:3 split is done every 2 days upon achieving the monolayer by washing with 1× PBS (phosphate buffer without Ca^2+ and Mg^2+) and detachment of cells with a trypsin-EDTA solution at 37° C. for 2 minutes.
Negative control: human keratinocytes NCTC2544 cultured in EMEM (EBSS) at 2.5% FBS, supplemented with 1% L-glutamine 2 mM, 1% solution of amino acids and 1% mixture of penicillin (10,000 U/ml)/streptomycin (10,000 Ug/ml) at 37° C., 5% CO2. Positive control: human keratinocytes NCTC2544 treated with lipopolysaccharide (LPS, 5 μg/ml) in EMEM (EBSS) at 2.5% FBS, supplemented with 1% L-glutamine 2 mM, 1% solution of amino acids and 1% mixture of penicillin (10,000 U/ml)/streptomycin (10,000 Ug/ml) at 37° C., 5% CO2.
The gene expression of TNF-α on NCTC2544 cells treated with the samples was evaluated by qRT-PCR.
The analysis of gene expression involves four steps:
1. Treatment of cells with the samples for 16 and 24 hours;
3. Retrotranscription in cDNA;
In the experimental conditions, in relation with the results obtained in a previous MTT test, samples of spermidine and N^1-methyl-spermidine were tested at the following concentrations: 1 μM, 500 nM and 1 mM (final concentration in the medium). Said positive and negative controls were also tested.
When the human keratinocyte cells NCTC 2544 have reached about 80% confluence, they are detached with trypsin/EDTA and seeded at a density of 1×10^6 cells/ml in 12-well plates and incubated at 37° C., 5% CO2 (24 h).
The above samples of spermidine and N^1-methyl-spermidine were dissolved in EMEM, supplemented with 2.5% FCS, 1% 2 mM L-glutamine, 1% NEAA solution and 1% penicillin (10,000 U/ml)/streptomycin ([…]).
The controls, containing only culture medium (negative control) and culture medium plus LPS ([…]) (positive control), were included in each plate. The cells were exposed to the action of the samples of spermidine and N^1-methyl-spermidine at the above concentrations of 1 μM, 500 nM and 1 mM: a total of six samples.
LPS at a concentration of 5 μg/ml was added to each well (except in the negative control). Each sample was tested in replicate.
With reference to the graphs in FIGS. 4 and 5, samples of further compounds of the invention as specified below were subjected to anti-inflammatory test on an immortalized line of human keratinocytes NCTC2544 substantially as described above, to the general part whereof reference shall be made.
The controls containing only culture medium (negative control) and culture medium plus LPS (5 μg/ml) (positive control), were included in each plate.
The cells were exposed to the action of samples of the compounds N^1-ethylspermidine, N^1-propylspermidine, N^1-isobutylspermidine at the concentrations of 1 nM and 1 μM.
The gene expression data were obtained by RT-PCR.

`CN(CCCN)CCCCN.Cl.Cl.Cl` [N-(3-aminopropyl)-N^1-methyl-1,4-butanediamine 3HCl] was tested, and the “antioxidant activity compared with α-tocopherol (580 μM)” value (NCTC 2544 cells) was “higher antioxidant activity” and the “decrease in intracellular concentration of ROS produced compared with H2O2 control” value (NCTC 2544 cells) was “decrease substantially comparable”.
`CN(CCCN)CCCCN` [N^1-methylspermidine, N-(3-aminopropyl)-N^1-methyl-1,4-butanediamine] was tested, and the “anti-inflammatory effects after 24 hours compared with 16 hours” value (TNF-α; 24 hours of treatment (FIG. 2)) was “remain almost unchanged”, the “anti-inflammatory effect compared with spermidine” value (TNF-α; 24 hours of treatment, 500 nM (FIG. 2)) was “significantly higher anti-inflammatory effect” and the TNF-α expression (TNF-α; 1 nM (FIG. 1)) was 7.94%. For the same compound, the TNF-α expression (TNF-α; 500 nM (FIG. 1)) was 1.52% and the “anti-inflammatory effect (TNF-α gene expression)” value (TNF-α; all concentrations examined, 16 and 24 hours) was “anti-inflammatory effect”.
For `NCCCCNCCCN` [spermidine, reference compound], the TNF-α expression (TNF-α; 1 nM (FIG. 1)) was 13.99%.
`Cc1c(C)c2c(c(C)c1O)CC[C@@](C)(CCC[C@H](C)CCC[C@H](C)CCCC(C)C)O2` [α-tocopherol, reference compound] was tested, and the “decrease in intracellular concentration of ROS produced compared with H2O2 control” value (NCTC 2544 cells) was “decrease substantially comparable”.
